target: T1, SIK2 (Homo sapiens, UniProt Q9H0K1); test: SIK2 Enzymatic Assay Version 1 (ADP Glo); format: biochemical; details: enzyme 0.6 nM, 160 μM ATP and 140 μM HDAC5tide (each 2× final concentration); 30 minutes pre-incubation, 4 hours; ADPGlo luminescence; read-out: SIK2 ADP Glo IC50 (μM) (Test Example 1)
Description: All steps were performed at room temperature. Compounds were pre-plated onto an assay plate using an Echo acoustic dispenser (Labcyte, E550 or E555) at 20 nL per well. Enzyme prepared in Assay Buffer at 0.6 nM (2× final concentration) was added at 2 μL per well using the Multidrop Combi (Thermo Fisher—used for all additions in this assay) to the assay plate, spun for 1 min at 800-850 rpm (Allegra 6KR Beckman Coulter centrifuge), and incubated with compound for 30 minutes.
One column of wells was dedicated to a no-peptide negative control (containing only ATP). ADPGlo Reagent (prepared and aliquoted as per manufacturer instructions) was then added at 2 μL per well, spun and incubated for 40 min. ADPGlo Detection (prepared and aliquoted as per manufacturer instructions) was added at 2 μL per well to the assay plate, which was spun and incubated for at least 30 min. The plate was then read on the Pherastar (BMG Labtech) using a luminescence read. Gain was set by the 0.1 mM concentration of ADP wells in the ADP/ATP standard curve plate generated as per manufacturer instructions.

T1 sequence (Q9H0K1 whole entry, species assumed): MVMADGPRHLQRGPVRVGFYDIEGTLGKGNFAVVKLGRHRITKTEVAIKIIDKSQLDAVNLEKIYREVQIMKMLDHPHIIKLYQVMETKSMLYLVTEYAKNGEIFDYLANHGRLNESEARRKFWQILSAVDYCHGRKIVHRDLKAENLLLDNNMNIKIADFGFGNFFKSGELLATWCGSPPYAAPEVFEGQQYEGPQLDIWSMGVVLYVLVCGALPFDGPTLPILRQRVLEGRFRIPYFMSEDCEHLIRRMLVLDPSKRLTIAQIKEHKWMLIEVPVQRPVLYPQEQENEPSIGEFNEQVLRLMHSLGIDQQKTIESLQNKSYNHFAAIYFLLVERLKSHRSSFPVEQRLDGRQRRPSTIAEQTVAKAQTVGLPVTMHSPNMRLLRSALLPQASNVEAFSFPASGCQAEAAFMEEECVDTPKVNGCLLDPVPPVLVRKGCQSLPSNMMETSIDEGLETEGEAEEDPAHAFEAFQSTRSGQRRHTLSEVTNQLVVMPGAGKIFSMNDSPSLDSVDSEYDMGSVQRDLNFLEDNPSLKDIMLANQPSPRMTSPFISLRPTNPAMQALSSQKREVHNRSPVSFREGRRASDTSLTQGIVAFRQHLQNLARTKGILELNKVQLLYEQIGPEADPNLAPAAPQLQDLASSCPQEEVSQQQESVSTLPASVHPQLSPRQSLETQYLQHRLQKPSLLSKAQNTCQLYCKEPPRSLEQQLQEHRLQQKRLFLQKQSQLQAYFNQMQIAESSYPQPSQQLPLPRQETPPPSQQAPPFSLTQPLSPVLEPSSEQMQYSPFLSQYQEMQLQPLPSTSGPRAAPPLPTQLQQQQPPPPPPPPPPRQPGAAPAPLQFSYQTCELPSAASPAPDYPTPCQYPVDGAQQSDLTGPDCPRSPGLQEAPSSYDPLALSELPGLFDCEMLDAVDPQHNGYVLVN

Q: With `CCOc1cnc(C#N)cc1-c1ccn2nc(NC(=O)C3CC3)cc2c1` [Example 583, N-[5-(2-cyano-5-ethoxy-4-pyridyl)pyrazolo[1,5-a]pyridin-2-yl]cyclopropanecarboxamide] as the compound, how does the IC50 read?
A: 0.00412 µM

Q: Which IC50 does the source give for `CN1CCOC[C@H](Oc2cnc(C#N)cc2-c2ccn3nc(NC(=O)C4CC4)cc3c2)C1` [Example 12, N-[5-[2-cyano-5-[[(6R)-4-methyl-1,4-oxazepan-6-yl]oxy]-4-pyridyl]pyrazolo[1,5-a]pyridin-2-yl]cyclopropanecarboxamide] here?
A: 0.0133 µM

Q: Which IC50 does the source give for `CC(C)(C)OC(=O)N1CCC(COc2cnc(C#N)cc2-c2ccn3nc(NC(=O)C4CC4)cc3c2)C1` (stereo in doubt) [Example 35, tert-butyl (3R)-3-[[6-cyano-4-[2-(cyclopropanecarbonylamino)pyrazolo[1,5-a]pyridin-5-yl]-3-pyridyl]oxymethyl]pyrrolidine-1-carboxylate] here?
A: 0.0354 µM

Q: How did the IC50 turn out when `CO[C@H]1C[C@H](Oc2cnc(C)cc2-c2ccn3nc(NC(=O)C4CC4)cc3c2)C1` [Example 146, trans-N-[5-[5-(3-methoxycyclobutoxy)-2-methyl-4-pyridyl]pyrazolo[1,5-a]pyridin-2-yl]cyclopropanecarboxamide] was run?
A: 0.0352 µM

Q: How did the IC50 turn out when `Cc1cc(-c2ccn3nc(NC(=O)C4CC4)cc3c2)c(OC[C@@H](N)C(C)(C)C)cn1` [Example 149, N-[5-[5-[(2S)-2-amino-3,3-dimethyl-butoxy]-2-methyl-4-pyridyl]pyrazolo[1,5-a]pyridin-2-yl]cyclopropanecarboxamide] was run?
A: 0.0122 µM

Q: With `N#Cc1cc(-c2ccn3nc(NC(=O)C4CC4)cc3c2)c(O[C@@H]2CNCCOC2)cn1` [Example 21, N-[5-[2-cyano-5-[[(6R)-1,4-oxazepan-6-yl]oxy]-4-pyridyl]pyrazolo[1,5-a]pyridin-2-yl]cyclopropanecarboxamide] as the compound, how does the IC50 read?
A: 0.0213 µM

Q: How did the IC50 turn out when `COc1cccnc1-c1ccn2nc(NC(=O)C3CC3)cc2c1` [Example 750, N-[5-(3-methoxy-2-pyridyl)pyrazolo[1,5-a]pyridin-2-yl]cyclopropanecarboxamide] was run?
A: 0.45 µM

Q: How did the IC50 turn out when `CN1C[C@@H](Oc2cnc(C#N)cc2-c2ccn3nc(NC(=O)C4CC4)cc3c2)C[C@@H](C(F)(F)F)C1` [Example 28, N-[5-[2-cyano-5-[[(3S,5R)-1-methyl-5-(trifluoromethyl)-3-piperidyl]oxy]-4-pyridyl]pyrazolo[1,5-a]pyridin-2-yl]cyclopropanecarboxamide] was run?
A: 0.00922 µM

Q: With `COc1ccccc1-c1ccn2nc(NC(=O)C3CC3)cc2c1` [Example 742, N-[5-(2-methoxyphenyl)pyrazolo[1,5-a]pyridin-2-yl]cyclopropanecarboxamide] as the compound, how does the IC50 read?
A: 0.417 µM

Q: For `CN1CC2(C1)CN(c1cnc(C#N)cc1-c1ccn3nc(NC(=O)C4CC4)cc3c1)C2` [Example 91, N-[5-[2-cyano-5-(2-methyl-2,6-diazaspiro[3.3]heptan-6-yl)-4-pyridyl]pyrazolo[1,5-a]pyridin-2-yl]cyclopropanecarboxamide], which IC50 is on record?
A: 0.0688 µM

Q: Which IC50 does the source give for `CCOc1ccccc1-c1ccn2nc(NC(=O)C3CC3)cc2c1` [Example 743, N-[5-(2-ethoxyphenyl)pyrazolo[1,5-a]pyridin-2-yl]cyclopropanecarboxamide] here?
A: 0.0217 µM

Q: Which IC50 does the source give for `CNC(=O)C1CN(c2cnc(C#N)cc2-c2ccn3nc(NC(=O)C4CC4)cc3c2)C1` [Example 73, 1-[6-cyano-4-[2-(cyclopropanecarbonylamino)pyrazolo[1,5-a]pyridin-5-yl]-3-pyridyl]-N-methyl-azetidine-3-carboxamide] here?
A: 0.0846 µM

Q: Which IC50 does the source give for `N#Cc1cc(-c2ccn3nc(NC(=O)C4CC4)cc3c2)c(N2CC(O)(C(F)(F)F)C2)cn1` [Example 75, N-[5-[2-cyano-5-[3-hydroxy-3-(trifluoromethyl)azetidin-1-yl]-4-pyridyl]pyrazolo[1,5-a]pyridin-2-yl]cyclopropanecarboxamide] here?
A: 0.398 µM

Q: Which IC50 does the source give for `N#Cc1cc(-c2ccn3nc(NC(=O)C4CC4)cc3c2)c(N2CCC(O)(C(F)(F)F)C2)cn1` (racemic) [Example 87, (rac-)-N-[5-[2-cyano-5-[3-hydroxy-3-(trifluoromethyl)pyrrolidin-1-yl]-4-pyridyl]pyrazolo[1,5-a]pyridin-2-yl]cyclopropanecarboxamide] here?
A: 0.118 µM

Q: With `N#Cc1cc(-c2ccn3nc(NC(=O)C4CC4)cc3c2)c(OC2(C(F)(F)F)CCNCC2)cn1` [Example 9, N-(5-(2-cyano-5-((4-(trifluoromethyl)piperidin-4-yl)oxy)pyridin-4-yl)pyrazolo[1,5-a]pyridin-2-yl)cyclopropanecarboxamide] as the compound, how does the IC50 read?
A: 0.152 µM

Q: Which IC50 does the source give for `N#Cc1cc(-c2ccn3nc(NC(=O)C4CC4)cc3c2)c(N2CC(CO)C2)cn1` [Example 3, N-[5-[2-cyano-5-[3-(hydroxymethyl)azetidin-1-yl]-4-pyridyl]pyrazolo[1,5-a]pyridin-2-yl]cyclopropanecarboxamide] here?
A: 0.0183 µM

Q: `N#Cc1cc(-c2ccn3nc(NC(=O)C4CC4)cc3c2)c(OCc2ccc(C(F)(F)F)nc2)cn1` [Example 61, N-[5-[2-cyano-5-[[6-(trifluoromethyl)-3-pyridyl]methoxy]-4-pyridyl]pyrazolo[1,5-a]pyridin-2-yl]cyclopropanecarboxamide] was tested. Which IC50 did it give?
A: 0.0103 µM

Q: How did the IC50 turn out when `Cc1cc(-c2ccn3nc(Nc4ccc(C(=O)NC5CC5)c(F)c4)cc3c2)c(OCC(C)(C)O)cn1` [Example 615, N-cyclopropyl-2-fluoro-4-[[5-[5-(2-hydroxy-2-methyl-propoxy)-2-methyl-4-pyridyl]pyrazolo[1,5-a]pyridin-2-yl]amino]benzamide] was run?
A: 0.0117 µM

Q: With `N#Cc1cc(-c2ccn3nc(NC(=O)C4CC4)cc3c2)c(NC2CCCC2)cn1` [Example 78, N-[5-[2-cyano-5-(cyclopentylamino)-4-pyridyl]pyrazolo[1,5-a]pyridin-2-yl]cyclopropanecarboxamide] as the compound, how does the IC50 read?
A: 0.0143 µM

Q: For `CN(C)CCNc1cnc(C#N)cc1-c1ccn2nc(NC(=O)C3CC3)cc2c1` [Example 2, N-[5-[2-cyano-5-(2-dimethylaminoethylamino)-4-pyridyl]pyrazolo[1,5-a]pyridin-2-yl]cyclopropanecarboxamide], which IC50 is on record?
A: 0.0691 µM

Q: Which IC50 does the source give for `CCN1CC(Oc2cnc(C)cc2-c2ccn3nc(NC(=O)C4CC4)cc3c2)C1` [Example 141, N-[5-[5-(1-ethylazetidin-3-yl)oxy-2-methyl-4-pyridyl]pyrazolo[1,5-a]pyridin-2-yl]cyclopropanecarboxamide] here?
A: 0.0138 µM

Q: For `N#Cc1cc(-c2ccn3nc(NC(=O)C4CC4)cc3c2)c(O[C@H]2CNCCOC2)cn1` [Example 84, N-[5-[2-cyano-5-[[(6S)-1,4-oxazepan-6-yl]oxy]-4-pyridyl]pyrazolo[1,5-a]pyridin-2-yl]cyclopropanecarboxamide], which IC50 is on record?
A: 0.014 µM

Q: `N#Cc1cc(-c2ccn3nc(NC(=O)C4CC4)cc3c2)c(O[C@@H]2CCN(C3CC3)C2)cn1` [Example 25, N-[5-[2-cyano-5-[(3R)-1-cyclopropylpyrrolidin-3-yl]oxy-4-pyridyl]pyrazolo[1,5-a]pyridin-2-yl]cyclopropanecarboxamide] was tested. Which IC50 did it give?
A: 0.00145 µM

Q: `N#Cc1cc(-c2ccn3nc(NC(=O)C4CC4)cc3c2)c(NC2CC2)cn1` [Example 80, N-[5-[2-cyano-5-(cyclopropylamino)-4-pyridyl]pyrazolo[1,5-a]pyridin-2-yl]cyclopropanecarboxamide] was tested. Which IC50 did it give?
A: 0.0703 µM

Q: For `COc1ncccc1-c1ccn2nc(NC(=O)C3CC3)cc2c1` [Example 748, N-[5-(2-methoxy-3-pyridyl)pyrazolo[1,5-a]pyridin-2-yl]cyclopropanecarboxamide], which IC50 is on record?
A: 0.0965 µM

Q: `CN1CC2CN(c3cnc(C#N)cc3-c3ccn4nc(NC(=O)C5CC5)cc4c3)CC2C1` (stereo not shown) [Example 90, N-[5-[2-cyano-5-(2-methyl-1,3,3a,4,6,6a-hexahydropyrrolo[3,4-c]pyrrol-5-yl)-4-pyridyl]pyrazolo[1,5-a]pyridin-2-yl]cyclopropanecarboxamide] was tested. Which IC50 did it give?
A: 0.0134 µM

Q: How did the IC50 turn out when `CC(C)(C)OC(=O)N1CC2(CC(Oc3cnc(C#N)cc3-c3ccn4nc(NC(=O)C5CC5)cc4c3)C2)C1` [Example 34, tert-butyl 2-[[6-cyano-4-[2-(cyclopropanecarbonylamino)pyrazolo[1,5-a]pyridin-5-yl]-3-pyridyl]oxy]-6-azaspiro[3.3]heptane-6-carboxylate] was run?
A: 0.0227 µM

Q: For `N#Cc1cc(-c2ccn3nc(NC(=O)C4CC4)cc3c2)c(O[C@H]2C[C@H]3C[C@@H]2CN3)cn1` (single isomer, unassigned) [Example 18, N-[5-[5-[[(1*R,4*R,5*S)-2-azabicyclo[2.2.1]heptan-5-yl]oxy]-2-cyano-4-pyridyl]pyrazolo[1,5-a]pyridin-2-yl]cyclopropanecarboxamide], which IC50 is on record?
A: 0.00158 µM

Q: How did the IC50 turn out when `Cc1cc(-c2ccn3nc(NC(=O)C4CC4)cc3c2)c(OC2CN(C(C)C)C2)cn1` [Example 142, N-[5-[5-(1-isopropylazetidin-3-yl)oxy-2-methyl-4-pyridyl]pyrazolo[1,5-a]pyridin-2-yl]cyclopropanecarboxamide] was run?
A: 0.0448 µM

Q: `N#Cc1cc(-c2ccn3nc(NC(=O)C4CC4)cc3c2)c(O[C@H]2CCN[C@@H](C(F)(F)F)C2)cn1` (single isomer, unassigned) [Example 14, N-(5-(2-cyano-5-(((2*R,4*S)-2-(trifluoromethyl)piperidin-4-yl)oxy)pyridin-4-yl)pyrazolo[1,5-a]pyridin-2-yl)cyclopropanecarboxamide] was tested. Which IC50 did it give?
A: 0.0249 µM

target: T1, SIK2; test: SIK2 Enzymatic Assay High Version 2 (High ATP); format: biochemical; details: not given
Outline: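 At room temperature, enzyme (6 nM, 2× final) was preincubated with compound for 30 min, then 6 mM ATP and 400 μM HDAC5tide (both 2× final) were added for 2 h. ADP formed was measured by ADP-Glo Max (2 h reagent, 1 h detection) using luminescence.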

Q: With `CCOc1cnc(C#N)cc1-c1ccn2nc(NC(=O)C3CC3)cc2c1` [Example 583, N-[5-(2-cyano-5-ethoxy-4-pyridyl)pyrazolo[1,5-a]pyridin-2-yl]cyclopropanecarboxamide] as the compound, how does the IC50 read?
A: 0.0611 µM
